In patent US20090209460A1, “COMPOSITIONS AND METHODS FOR TREATING OBESITY AND RELATED METABOLIC DISORDERS” (Amylin Pharmaceuticals, Inc., priority 2005, published 2009):
Like-named read-outs stand apart in the source and are kept apart here. Residues, ends and D or L forms follow the SMILES beside them.

Legend:
[1] = degradation in vitro in plasma, serial MS analyses; assay type: in vitro ADME
Text: Doses at which we observed herein an absence of anorectic effect (in mice) were 1-2 orders of magnitude higher than the lower U8 dose for maximal hemodynamic effects in dogs (Sumi et al. 1987).

NIH/Swiss mice = assay: acute food intake assay, lean overnight-fasted NIH/Swiss mice, intraperitoneal injection; assay type: in vivo, mouse; settings: for FI (60′, 200): % change relative to control, 60 min; for reduction of food intake: administered systemically (i.p. to mice), dose and time not stated; for Food Intake Inhibition: mouse assay, dose of 200 mg/kg, measured at 60 minutes
Summary of the method: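 Overnight-fasted lean female NIH/Swiss mice (8-24 weeks, group housed) received vehicle or peptide intraperitoneally at time 0, then pre-weighed standard chow. Food consumed was weighed at 30, 60 and 120 min and expressed as % change versus control.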

[2] = cumulative weight gain in rats with diet induced obesity (rat DIO), subcutaneous pump for seven days; assay type: in vivo; settings: subcutaneously continuously by pump for seven days
Procedure: Both compounds were administered subcutaneously continuously by pump for seven days at the rate and dosage indicated.

[3] = body weight and food intake in mice with diet induced obesity (mouse DIO), osmotic pump; assay type: in vivo
Procedure: The effect of FN38 and related compounds on body weight and food intake in obese subjects was investigated. Mice having diet induced obesity (DIO) were used. All in vivo tests were performed with peripheral injections of peptide. […] 4-week-old male C57BL/6 mice were group housed with water and a standard pelleted mouse chow diet available ad libitum, except as noted, and were maintained on a on a high fat diet (58% kcal from fat) for 4 weeks prior to the experiment. At the end of fattening period, osmotic pumps were implanted interscapularly under anesthesia. Mice received pumps continuously delivering vehicle (50% DMSO in water or saline) or polypeptide at the dose indicated. Food intake and body weight measurements were obtained weekly.

[4] = brush border membrane (BBM) stability assay; assay type: in vitro ADME, human; settings: brush border membrane extract (e.g. kidney)
Summary of the method: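 Peptides digested up to 5 h at 37 °C with human brush border membrane extract (e.g. kidney). Timepoints quenched with 50% ACN, 1% FA, centrifuged, intact peptide quantified by selected-ion mass spectrometry. Expressed as percent stable.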

rats = settings: 10 μg ICV dose; cited from earlier work
[5] = tested on: mice with diet induced obesity (mouse DIO); assay: cumulative food intake in mouse DIO after IP injection (FIGS. 6 and 7); assay type: in vivo; settings: injected IP at t=0; measured at 30, 60, 120 and 180 min
Procedure: The activities of the following compounds are shown: A, [MimicB36] FN38; B, [His37] FN38; C,
[His35] FN38; D, [Phe33] FN38; E, [Val33] FN38; F, Des-(Ser6,Lys7,Thr8,Gln9) FN38; G, Des-Val16,Val17-FN38; H, [Phe31] FN38; I, Des-(Val16,Val17,Phe24,Ala25,Ser26,Gln27) FN38; J, Des-(Phe1,Leu2,Phe3,His4)FN38; and K, Des-(Phe24,Ala25,Ser26,Gln27)-FN38. […] Points represent mean±sd of n=4 cages (3 mice/cage). Peptide was injected IP at t=0. Food was introduced immediately after injection and amount consumed measured at t=30, 60, 120, and 180 min. In the figure, * p<0.05 vs. vehicle control; ANOVA, Dunnett's test.

[6] = percent compound remaining after a 5 hour incubation, human brush border membrane assay, read-out: hBBM

Structure (SMILES)	remaining at 5 h [4, 6] [%]	FI (60′, 200) (NIH/Swiss mice; food intake) [%]	cumulative food intake in mouse DIO (FIGS. 6A, 6B, 7A, 7B) [5]	Food Intake Inhibition (NIH/Swiss mice) [%]	other results
CC(C)C[C@H](NC(=O)[C@H](Cc1ccccc1)NC(=O)[C@@H](N)Cc1ccc(O)cc1)C(=O)N[C@@H](Cc1ccccc1)C(=O)N[C@@H](CCCNC(=N)N)C(=O)N1CCC[C@H]1C(=O)N[C@@H](CCCNC(=N)N)C(=O)N[C@@H](CC(N)=O)C(N)=O [Compound 163291, reference compound]	–	−75	–	–	degradation in vitro in plasma [1]: rapid degradation; activity in food intake assays (NIH/Swiss mice; doses between 100-1000 μg/kg (up to 900 nmol/kg)): inactive; difference in potency between U-8 and rNMU-23 (NIH/Swiss mice; food intake, mice): at least 1000 fold
CC(C)C[C@H](NC(=O)[C@H](Cc1ccccc1)NC(=O)[C@H](Cc1ccccc1)NC(=O)CNC(=O)CNC(=O)[C@H](CO)NC(=O)[C@@H]1CCCN1C(=O)[C@H](C)NC(=O)[C@@H](NC(=O)[C@@H]1CCCN1C(=O)CNC(=O)[C@H](CCC(N)=O)NC(=O)[C@H](Cc1ccc(O)cc1)NC(=O)[C@H](CCC(=O)O)NC(=O)[C@H](CC(N)=O)NC(=O)[C@@H](NC(=O)[C@H](CCCCN)NC(=O)[C@@H](N)Cc1ccc(O)cc1)C(C)C)C(C)C)C(=O)N[C@@H](Cc1ccccc1)C(=O)N[C@@H](CCCNC(=N)N)C(=O)N1CCC[C@H]1C(=O)N[C@@H](CCCNC(=N)N)C(=O)N[C@@H](CC(N)=O)C(N)=O [Compound 163293, reference compound] (H-YKVNEYQGPVAPSGGFFLFRPRN-NH2; N-terminus assumed)	–	−37.5	–	–	cumulative weight gained in rat DIO (FIG. 5) [2]: reduction of cumulative weight gained; body weight gain and food intake in the DIO assay ([3]; 75 nmol/kg/day): decreased body weight gain and food intake; d 14 BWt loss ([3]; mouse DIO, day 14): 3.7%; reduction of food intake (NIH/Swiss mice): up to 66%; change in intake (effectiveness) (NIH/Swiss mice; food intake over 30 min, mice): −60%; ED50 at t = 60 (NIH/Swiss mice; food intake, t = 60): 0.017 mg/kg; ED50 for effect on food intake (NIH/Swiss mice; over 30 min, i.p., mice): 6.2 nmol/kg
CC(C)C[C@H](NC(=O)[C@H](Cc1ccccc1)NC(=O)[C@H](Cc1ccc(O)cc1)NC(=O)CNC(=O)[C@H](CCCNC(=N)N)NC(=O)[C@H](CO)NC(=O)[C@H](CCC(N)=O)NC(=O)[C@H](CO)NC(=O)[C@H](C)NC(=O)[C@H](Cc1ccccc1)NC(=O)[C@@H]1CCCN1C(=O)[C@H](CO)NC(=O)[C@H](CCC(N)=O)NC(=O)[C@H](Cc1ccccc1)NC(=O)[C@H](CCC(=O)O)NC(=O)[C@H](CCC(=O)O)NC(=O)[C@H](CC(=O)O)NC(=O)[C@@H](NC(=O)[C@H](CCCNC(=N)N)NC(=O)[C@@H](N)Cc1ccccc1)C(C)C)C(=O)N[C@@H](Cc1ccccc1)C(=O)N[C@@H](CCCNC(=N)N)C(=O)N1CCC[C@H]1C(=O)N[C@@H](CCCNC(=N)N)C(=O)N[C@@H](CC(N)=O)C(N)=O [Compound 165054, reference compound] (H-FRVDEEFQSPFASQSRGYFLFRPRN-NH2; N-terminus assumed)	–	−65	–	–	remaining at 5 h ([4]; percent of stable, human brush border membrane extracts, five hours, 37° C., read-out: BBM): 13%; reduction of food intake (NIH/Swiss mice): at least 91%; potency administered peripherally versus centrally (i.c.v.), on a presumed concentration basis (NIH/Swiss mice; i.p. ED50 in mice compared with literature ICV dose in rats): ~300 fold; reduction in food intake (rats): ~30%
CC(C)C[C@H](NC(=O)[C@H](CCCCN)NC(=O)[C@H](CCC(N)=O)NC(=O)[C@@H](NC(=O)[C@H](CCCCN)NC(=O)[C@H](CO)NC(=O)[C@H](Cc1ccc(O)cc1)NC(=O)[C@H](Cc1c[nH]cn1)NC(=O)[C@H](Cc1ccccc1)NC(=O)[C@H](CC(C)C)NC(=O)[C@@H](N)Cc1ccccc1)[C@@H](C)O)C(=O)NCC(=O)N[C@@H](CCCCN)C(=O)N[C@@H](CO)C(=O)N[C@@H](CC(N)=O)C(=O)NCC(=O)N[C@@H](Cc1ccc(O)cc1)C(=O)N[C@@H](Cc1ccccc1)C(=O)N[C@@H](CC(C)C)C(=O)N[C@@H](Cc1ccccc1)C(=O)N[C@@H](CCCNC(=N)N)C(=O)N1CCC[C@H]1C(=O)N[C@@H](CCCNC(=N)N)C(=O)N[C@@H](CC(N)=O)C(N)=O [Des-(Val16-Arg29)FN38] (H-FLFHYSKTQKLGKSNGYFLFRPRN-NH2; N-terminus assumed)	91	–	reduction of cumulative food intake	−42	–

Further lines, with some results ahead:

remaining at 5 h [4, 6] [%]	Structure (SMILES)	FI (60′, 200) (NIH/Swiss mice; food intake) [%]	cumulative food intake in mouse DIO (FIGS. 6A, 6B, 7A, 7B) [5]	Food Intake Inhibition (NIH/Swiss mice) [%]	other results
76	CC(C)C[C@H](NC(=O)[C@H](CCCCN)NC(=O)[C@H](CCC(N)=O)NC(=O)[C@@H](NC(=O)[C@H](CCCCN)NC(=O)[C@H](CO)NC(=O)[C@H](Cc1ccc(O)cc1)NC(=O)[C@H](Cc1c[nH]cn1)NC(=O)[C@H](Cc1ccccc1)NC(=O)[C@H](CC(C)C)NC(=O)[C@@H](N)Cc1ccccc1)[C@@H](C)O)C(=O)NCC(=O)N[C@@H](CCCCN)C(=O)N[C@@H](CO)C(=O)N[C@@H](CC(N)=O)C(=O)N[C@@H](CCC(=O)O)C(=O)N[C@@H](CCC(=O)O)C(=O)N[C@@H](CC(C)C)C(=O)N[C@@H](CCC(N)=O)C(=O)N[C@@H](CO)C(=O)N1CCC[C@H]1C(=O)N[C@@H](CO)C(=O)N[C@@H](CCCNC(=N)N)C(=O)NCC(=O)N[C@@H](Cc1ccc(O)cc1)C(=O)N[C@@H](Cc1ccccc1)C(=O)N[C@@H](CC(C)C)C(=O)N[C@@H](Cc1ccccc1)C(=O)N[C@@H](CCCCN)C(=O)N1CCC[C@H]1C(=O)N[C@@H](CCCNC(=N)N)C(=O)N[C@@H](CC(N)=O)C(N)=O [Des-(Val16,Val17,Phe24-Gln27)[K35]FN38] (H-FLFHYSKTQKLGKSNEELQSPSRGYFLFKPRN-NH2; N-terminus assumed)	–	reduction of cumulative food intake	−54	–
80	CC(C)C[C@H](NC(=O)[C@H](CCCCN)NC(=O)[C@H](CCC(N)=O)NC(=O)[C@@H](NC(=O)[C@H](CCCCN)NC(=O)[C@H](CO)NC(=O)[C@H](Cc1ccc(O)cc1)NC(=O)[C@H](Cc1c[nH]cn1)NC(=O)[C@H](Cc1ccccc1)NC(=O)[C@H](CC(C)C)NC(=O)[C@@H](N)Cc1ccccc1)[C@@H](C)O)C(=O)NCC(=O)N[C@@H](CCCCN)C(=O)N[C@@H](CO)C(=O)N[C@@H](CC(N)=O)C(=O)N[C@@H](CO)C(=O)N[C@@H](CCCNC(=N)N)C(=O)NCC(=O)N[C@@H](Cc1ccc(O)cc1)C(=O)N[C@@H](Cc1ccccc1)C(=O)N[C@@H](CC(C)C)C(=O)N[C@@H](Cc1ccccc1)C(=O)N[C@@H](CCCNC(=N)N)C(=O)N1CCC[C@H]1C(=O)N[C@@H](CCCNC(=N)N)C(=O)N[C@@H](CC(N)=O)C(N)=O [Des-(Val16-Gln27)FN38] (H-FLFHYSKTQKLGKSNSRGYFLFRPRN-NH2; N-terminus assumed)	–	reduction of cumulative food intake	−42	–
67	CC(C)C[C@H](NC(=O)[C@H](CCCCN)NC(=O)[C@H](CCC(N)=O)NC(=O)[C@@H](NC(=O)[C@H](CCCCN)NC(=O)[C@H](CO)NC(=O)[C@H](Cc1ccc(O)cc1)NC(=O)[C@H](Cc1c[nH]cn1)NC(=O)[C@H](Cc1ccccc1)NC(=O)[C@H](CC(C)C)NC(=O)[C@@H](N)Cc1ccccc1)[C@@H](C)O)C(=O)NCC(=O)N[C@@H](CCCCN)C(=O)N[C@@H](CO)C(=O)N[C@@H](CC(N)=O)C(=O)N[C@H](C(=O)N[C@H](C(=O)N[C@@H](CCC(=O)O)C(=O)N[C@@H](CCC(=O)O)C(=O)N[C@@H](CC(C)C)C(=O)N[C@@H](CCC(N)=O)C(=O)N[C@@H](CO)C(=O)N1CCC[C@H]1C(=O)N[C@@H](Cc1ccccc1)C(=O)N[C@@H](C)C(=O)N[C@@H](CO)C(=O)N[C@@H](CCC(N)=O)C(=O)N[C@@H](CO)C(=O)N[C@@H](CCCNC(=N)N)C(=O)NCC(=O)N[C@@H](Cc1ccc(O)cc1)C(=O)N[C@@H](Cc1ccccc1)C(=O)N[C@@H](Cc1ccccc1)C(=O)N[C@@H](Cc1ccccc1)C(=O)N[C@@H](CCCNC(=N)N)C(=O)N1CCC[C@H]1C(=O)N[C@@H](CCCNC(=N)N)C(=O)N[C@@H](CC(N)=O)C(N)=O)C(C)C)C(C)C [[Phe33]FN38] (H-FLFHYSKTQKLGKSNVVEELQSPFASQSRGYFFFRPRN-NH2; N-terminus assumed)	–	either not active or weakly active	−32	–
